Results reported in paper PMC10403574, “Discovery of a pyrrole-pyridinimidazole derivative as novel SIRT6 inhibitor for sensitizing pancreatic cancer to gemcitabine” (Cell Death & Disease, 2023).

Legend:
SIRT6 [1] = biological target: T1, SIRT6 (Homo sapiens, UniProt Q8N6T7); assay: Fluor-De-Lys (FDL) SIRT6 deacetylation assay; format: biochemical; design: The human full-length SIRT6 gene was inserted into the prokaryotic expression vector (pET-28a (+)); inferred from the pET-28a(+) vector, Ni-NTA purification and Ni-NTA biosensor loading); made in house; host or cells: Escherichia coli BL21 (DE3); settings: fixed concentration of 25 μM, RHKK-Ac-AMC, NI = no inhibition; for inhibition at 25 µM: read-out: Inhibition rate (%)
T1 sequence (Q8N6T7 whole entry): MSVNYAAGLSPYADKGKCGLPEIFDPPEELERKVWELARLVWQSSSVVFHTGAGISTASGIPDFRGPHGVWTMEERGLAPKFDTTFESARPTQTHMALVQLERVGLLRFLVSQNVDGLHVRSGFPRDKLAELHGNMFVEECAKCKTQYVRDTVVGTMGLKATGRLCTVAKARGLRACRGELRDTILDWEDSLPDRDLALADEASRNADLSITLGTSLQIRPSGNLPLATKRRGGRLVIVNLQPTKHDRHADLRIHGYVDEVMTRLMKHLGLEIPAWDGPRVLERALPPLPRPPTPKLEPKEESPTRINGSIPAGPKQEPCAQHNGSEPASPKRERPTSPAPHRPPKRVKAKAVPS
Procedure: The human full-length SIRT6 gene was inserted into the prokaryotic expression vector (pET-28a (+)). The verified recombinant plasmid was transformed into Escherichia coli BL21 (DE3) expression strain and cultured overnight at 37 °C on LB plates supplemented with 50 μg/mL kanamycin. Single colonies were inoculated in fluid kanamycin-containing LB mediums. It was shaken at 160 rpm for 16 h at 37 °C and transferred to kanamycin-containing LB medium at a ratio of 1:100. It was shaken at 160 rpm at 37 °C until the OD600 reached 0.6. The Isopropyl-β-d-thiogalactopyranoside was added to make the final concentration of solution 0.5 mmol/L, cultured for 15 °C and 160 rpm for 24 h.
Bacterial liquid was harvested at 12,000 rpm at 4 °C for 20 min, and then re-suspended in Lysis buffer (20 mmol/L Hepes pH 7.5, 20 mmol/L imidazole, 5% Glycerol, 500 mmol/L NaCl). Cell pellets were disrupted by high-pressure crusher (JNBIO, Guangzhou China) and centrifuged (4 °C, 12000 rpm, for 20 min). Supernatant was collected and purified by FPLC with a 1 mL Ni–NTA Sepharose column (GE Healthcare, Stamford, USA). The SIRT6 protein was eluted at containing 50 mM, 100 mM, 150 mM, 200 mM, and 500 mM imidazole in elution buffer. The purified SIRT6 protein was dialyzed in dialysis buffer (50 mM Tris-HCl, 137 mM NaCl, 2.7 mM KCl, 1 mM MgCl2). The purified SIRT6 protein was analyzed by SDS-PAGE.
Fluor-De-Lys (FDL) assays were used for the examination of the deacetylation activities of sirtuins as described previously. For the detection of SIRT6 activity, the 50-μL reaction mixture contained 5 μM SIRT6, 2.5 mM NAD^+ (β-Nicotinamide adenine dinucleotide hydrate, Sigma, N1636), 75 μM RHKK-Ac-AMC (GL Biochem, Shanghai), compounds/DMSO, and assay buffer. The reactions were incubated at 37 °C for 2 h, added 50 μL stop solution (40 mM nicotinamide, 6 mg/mL trypsin) at 25 °C for 30 min. Fluorescence intensity was measured at an excitation wavelength of 360 nm and an emission wavelength of 460 nm. IC50 values were calculated in GraphPad Prism version 8.00.

SIRT6 [2] = biological target: T1, SIRT6; design: endogenous in cells; host or cells: HeLa; settings: cited from earlier work
BXPC-3 xenografts = assay: BXPC-3 tumor xenograft in nude mice; format: in vivo, BALB/c nude mice; settings: gemcitabine 10 mg/kg i.p. once every 2 days for 4 weeks
Procedure: Female BALB/c nude mice (14 ± 2 g, 4 weeks old) were purchase. About 2 × 10^6 of BXPC-3 cells were inoculated into nude mouse flanks. When the tumor volume reached approximately 100 mm^3, mice were randomly divided into four groups with six mice per group before treatment and then treated with vehicle, 8a (20 mg/kg), gemcitabine (10 mg/kg) and their combination every 2 days. Tumor volumes and body weight were measured every 3 days, and use the formula to calculate the tumor volume: V = (L × W × W)/2 (V, tumor volume; L, length; and W, width). Mice were sacrificed and tumor tissues were removed. Tumor tissues were fixed with paraformaldehyde (4%) and embedded with paraffin.
To further confirm whether 8a can enhance the antitumor effects of gemcitabine in vivo, the BXPC-3 PDAC xenografts were used. The mice with tumors received intraperitoneal injection of compound 8a (20 mg/kg), gemcitabine (10 mg/kg), or their combination once every 2 days for 4 weeks. Tumor volumes and body weight of mice were monitored every 3 days.

BXPC-3 cells = assay: γ-H2AX DNA damage (immunofluorescence, western blot); format: cell-based; settings: BXPC-3, 10 nM gemcitabine, 6.25 μM 8a or combination, 24 h
Procedure: Cells were harvested and lysed in a lysis buffer (solarbio, R0010) supplementing 1 mM PMSF and protease inhibitor (TargetMol, USA). […] Then, the membranes were detected by Tanon 5200 (Tanon, Beijing, China). […]

Row | Inhibition rate (%) (SIRT6 [1]) | Structure (SMILES) | further results
1 |  | Cn1c(-c2nccc3[nH]cnc23)cc(Br)c1Br [Compound 1c] | inhibition at 25 µM (SIRT6 [1]): 3.7%
2 | 4.1 | Brc1cc(-c2nccc3[nH]cnc23)[nH]c1Br.O=C(O)C(F)(F)F [Compound 2a] | 
3 | 5.3 | BrCCCCCCn1cnc2c(-c3cc(Br)c(Br)[nH]3)nccc21.O=C(O)C(F)(F)F [Compound 4a] | 
4 | 6.4 | O=C(O)C(F)(F)F.O=C1c2ccccc2C(=O)N1CCCCCCn1cnc2c(-c3cc(Br)c(Br)[nH]3)nccc21 [Compound 10c] | 
5 | 16.7 | Brc1cc(-c2nccc3c2ncn3CCCCCCN2CCCCC2)[nH]c1Br.O=C(O)C(F)(F)F [Compound 10d] | 
6 |  | BrCCCCCCn1c(-c2nccc3c2ncn3CCCCCCBr)cc(Br)c1Br [Compound 11a] | inhibition at 25 µM (SIRT6 [1]): < 0%
7 | 23.8 | Brc1cc(-c2nccc3c2ncn3CCCCCCN2CCOCC2)n(CCCCCCN2CCOCC2)c1Br [Compound 11b] | 
8 |  | O=C(Nc1ccc(O)c(C(=O)O)c1)c1cccc(NC(=O)c2ccco2)c1 [OSS_128167] | IC50 (SIRT6 [2]): 89 µM
9 |  | Nc1ccn([C@@H]2O[C@H](CO)[C@@H](O)C2(F)F)c(=O)n1 [gemcitabine] | tumor mass inhibition (BXPC-3 xenografts): 30.1%; γ-H2AX foci (BXPC-3 cells): can cause γ-H2AX foci
